Reference: patent publication US7476691B2, “Sulfamate benzothiophene derivatives as steroid sulfatase inhibitors” (Laboratoire Theramex, priority 2003, dated 2009)
Several values for one entry are separate records, joined by “and”; a condition that tells them apart may be missing. Equal entries are not always repeated.

Columns and labels:
estrone sulfatase [1] = molecular target: T1, estrone sulfatase (Homo sapiens, UniProt P08842); test: Estrone sulfatase whole-cell assay on JEG-3 cells; assay type: cell-based; set-up: The JEG-3 cell line, derived from a human placental choriocarcinoma, is spontaneously very rich in human estrone sulfatase; endogenous in cells; host or cells: JEG-3 (human placental choriocarcinoma), intact cells; settings: 4 h treatment, 3H-E1S, read-out: IC50 (nM) ± S.E.M., inhibition of estrone sulfatase
T1 sequence (P08842 22-583): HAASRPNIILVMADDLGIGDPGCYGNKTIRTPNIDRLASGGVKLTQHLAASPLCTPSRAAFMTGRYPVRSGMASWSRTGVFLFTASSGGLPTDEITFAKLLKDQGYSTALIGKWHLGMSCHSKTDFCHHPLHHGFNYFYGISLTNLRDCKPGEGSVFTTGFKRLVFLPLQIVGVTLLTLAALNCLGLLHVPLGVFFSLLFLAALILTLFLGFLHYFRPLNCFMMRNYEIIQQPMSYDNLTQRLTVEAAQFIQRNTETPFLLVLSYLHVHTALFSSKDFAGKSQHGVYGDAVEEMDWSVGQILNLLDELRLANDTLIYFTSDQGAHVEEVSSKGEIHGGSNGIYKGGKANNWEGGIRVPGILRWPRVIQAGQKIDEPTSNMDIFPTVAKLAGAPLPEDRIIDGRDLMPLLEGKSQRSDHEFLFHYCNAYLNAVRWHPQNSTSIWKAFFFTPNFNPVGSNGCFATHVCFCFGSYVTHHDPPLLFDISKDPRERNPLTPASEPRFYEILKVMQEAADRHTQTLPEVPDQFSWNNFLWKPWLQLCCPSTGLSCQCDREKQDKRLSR
Experimental: (§1) Two in vitro models on whole cells were used. […] Moreover, these cells were used in the in vivo model of hormono-dependent induced xenografts.
(§2) Estrone Sulfatase Assay on Cells
(§3) Whole-cell assays were performed as originally described by Duncan et al. (Cancer Res., 1993, 53: 298-303) on intact MCF-7 cell monolayers. Assays were carried out with cells in logarithmic growth phase, on 96-well (JEG-3) or 24-well (MCF-7) microplates. Twenty-four hours (JEG-3) or 72 h (MCF-7) before studies, cells were seeded in decomplemented fetal calf serum (dFCS) supplemented medium. Then, the seeding medium was removed and the cells were rinsed with PBS to eliminate any trace of dFCS. Then, ^3H-E1S was added, followed by test compounds ranging from 10^−12 M to 10^−5 M. After 4 h (JEG-3) or 20 h (MCF-7) of treatment, the medium was transferred into either 96-deep-well microplates (JEG-3) or plastic tubes (MCF-7) and centrifuged at 200×g for 10 min to pellet cells before toluene extraction. A fraction of medium was used for toluene extraction in order to separate conjugated substrate and non-conjugated products. The radioactivity in the toluene phase was measured by liquid scintillation counting (LSC). Finally, estrone sulfatase activity was expressed in pmoles of ^3H-E1+^3H-E2 formed per 4 or 20 hours and per μg DNA and estrone sulfatase inhibition in percentage of control activity without inhibitor.

prepubescent female rats = test: Residual estrogenic activity in vivo (uterotrophic assay); settings: prepubescent female rats, oral, 1 mg/rat/day for 3 days
Experimental: These compounds were checked for residual estrogenic activity in vivo in the classical uterotrophic assay after 3-day administration by oral route in prepubescent female rats.
Prepubescent female rats were orally treated at 1 mg/rat/day for 3 days. On the day following the last treatment, uteri were removed and wet weight were recorded.
The results are expressed as % of stimulation of uterus weight in comparison with controls.

[2] = test system: ovariectomized Wistar female rats; test: Antiuterotrophic/antisulfatase activity: inhibition of E1S stimulated uterus weight; assay type: in vivo, rat; settings: ovariectomized rats, E1S 50 μg/kg/day s.c., compound oral 1 mg/kg/day for 4 days
Experimental: A short model, derived from Purohit's method, was developed for the evaluation in vivo of nonestrogenic steroid sulfatase inhibitors.
Wistar female rats were ovariectomized and left to rest for 4 weeks. Prior to treatment, the absence of cyclicity was checked by vaginal smears.
Animals were supplemented with estrone sulfate (E1S) at 50 μg/kg/day s.c., alone or combined with oral administration of potential sulfatase inhibitors, at 1 mg/kg/day for 4 days. The uteri were removed, freed of adjacent tissue and wet weighed.
The results are expressed as % of inhibition of the E1S induced stimulation.
The activity of Ex 55 on E1S stimulated uterus weight was evaluated in relation to the standard inhibitor 6,6,7 COUMATE from 0.03 mg/kg/day to 1 mg/kg/day p.o.
In this study, a last administration was performed 24 hours before the necropsy for E1S and E2 serum levels assays. The uteri were removed, freed of adjacent tissue, wet weighed and immediately deep frozen until the determination of sulfatase activity.

estrone sulfatase [3] = molecular target: T1, estrone sulfatase; test: Estrone sulfatase whole-cell assay on MCF-7 cells; assay type: cell-based; set-up: Whole-cell assays were performed as originally described by Duncan et al. (Cancer Res., 1993, 53: 298-303) on intact MCF-7 cell monolayers; endogenous in cells; host or cells: MCF-7 (human breast adenocarcinoma), intact monolayers; settings: 20 h treatment, 3H-E1S, read-out: IC50 (nM) ± S.E.M., inhibition of estrone sulfatase
Experimental: as §1, §2, §3

Compound	IC50 (estrone sulfatase [1])	melting point	% stimulation of uterus weight in comparison with controls (prepubescent female rats)	% inhibition of the E1S induced stimulation (uterus weight) [2]	IC50 (estrone sulfatase [3])
CC1CCC(c2cc3ccc(OS(N)(=O)=O)cc3s2)CC1 (centres unmarked) [Ex 34, Sulfamic acid, 2-(4-methylcyclohexyl)-benzothiophene-6-yl ester]	318 ± 42.9 nM	132 °C			
NS(=O)(=O)Oc1ccc2c3c(sc2c1)CCCC3 [Ex 64, Sulfamic acid, 1,2,3,4-tetrahydro-dibenzothiophene-7-yl ester]	566 ± 130 nM	165 °C			
NS(=O)(=O)Oc1ccc2cc(C3CCCCCCC3)sc2c1 [Ex 32, Sulfamic acid, 2-cyclooctyl-benzothiophene-6-yl ester]	434 ± 94.8 nM	126 °C			
CC1CCCCC1C1=Cc2ccc(OS(N)(=O)=O)cc2S1(=O)=O (centres unmarked) [Ex 49, Sulfamic acid, 2-(2-methylcyclohexyl)-benzothiophene-6-yl-1,1-dioxide ester]		92 °C	8%		
CCCC1=Cc2ccc(OS(N)(=O)=O)cc2S1(=O)=O [Ex 52, Sulfamic acid, 2-propyl-benzothiophene-6-yl-1,1-dioxide ester]	24.7 ± 5 nM	159 °C			
NS(=O)(=O)Oc1ccc2cc(CC3CCCCCC3)sc2c1 [Ex 41, Sulfamic acid, 2-cycloheptylmethyl-benzothiophene-6-yl ester]		90 °C			
CC1(C)CCCC1c1cc2ccc(OS(N)(=O)=O)cc2s1 (centres unmarked) [Ex 36, Sulfamic acid, 2-(2,2-dimethylcyclopentyl)-benzothiophene-6-yl ester]	128 ± 14.2 nM	72 °C			
NS(=O)(=O)Oc1ccc2cc(C3CCCCCCCCC3)sc2c1 [Ex 33, Sulfamic acid, 2-cyclodecyl-benzothiophene-6-yl ester]	744 ± 140 nM	98 °C			
NS(=O)(=O)Oc1ccc2c(c1)S(=O)(=O)C(CC1CCCCC1)=C2 [Ex 54, Sulfamic acid, 2-cyclohexylmethyl-benzothiophene-6-yl-1,1-dioxide ester]	~10 nM and 10 nM	132 °C	6%	49%	0.1 ± 0.03 nM
CCCCCCC1=Cc2ccc(OS(N)(=O)=O)cc2S1(=O)=O [Ex 53, Sulfamic acid, 2-hexyl-benzothiophene-6-yl-1,1-dioxide ester]	12.5 ± 3.3 nM	98 °C			
NS(=O)(=O)Oc1ccc2c(c1)S(=O)(=O)C(C1CCCCCCCCC1)=C2 [Ex 47, Sulfamic acid, 2-cyclodecyl-benzothiophene-6-yl-1,1-dioxide ester]	52.1 ± 4.4 nM	102 °C	4%	62%	0.08 ± 0.01 nM
CC1CCCCC1c1cc2ccc(OS(N)(=O)=O)cc2s1 (centres unmarked) [Ex 35, Sulfamic acid, 2-(2-methylcyclohexyl)-benzothiophene-6-yl ester]	147 ± 16.3 nM	110 °C			
NS(=O)(=O)Oc1ccc2c(c1)S(=O)(=O)C(C1CCCCC1)=C2 [Ex 44, Sulfamic acid, 2-cyclohexyl-benzothiophene-6-yl-1,1-dioxide ester]	10.9 ± 2.6 nM	180 °C	0%	70%	0.24 ± 0.05 nM
CCCc1cc2ccc(OS(N)(=O)=O)cc2s1 [Ex 38, Sulfamic acid, 2-propyl-benzothiophene-6-yl ester]		112 °C			
NS(=O)(=O)Oc1ccc2cc(C3CCCC3)sc2c1 [Ex 30, Sulfamic acid, 2-cyclopentyl-benzothiophene-6-yl ester]	78.8 ± 39.8 nM	110 °C			
NS(=O)(=O)Oc1ccc2cc(CC3CCCCC3)sc2c1 [Ex 40, Sulfamic acid, 2-cyclohexylmethyl-benzothiophene-6-yl ester]		115 °C			
C[C@]12CCC3c4ccc(OS(N)(=O)=O)cc4CCC3C1CCC2=O (some centres unmarked) [EMATE, estrone-3-sulfamate, reference compound]	3.2 ± 0.2 nM				0.06 ± 0.01 nM
CCCCCCc1cc2ccc(OS(N)(=O)=O)cc2s1 [Ex 39, Sulfamic acid, 2-hexyl-benzothiophene-6-yl ester]		125 °C			
CC1(C)CCCC1C1=Cc2ccc(OS(N)(=O)=O)cc2S1(=O)=O (centres unmarked) [Ex 50, Sulfamic acid, 2-(2,2-dimethylcyclopentyl)-benzothiophene-6-yl-1,1-dioxide ester]		172 °C	24%		
NS(=O)(=O)Oc1ccc2cc(C3CCCCCC3)sc2c1 [Ex 31, Sulfamic acid, 2-cycloheptyl-benzothiophene-6-yl ester]	102 ± 58 nM	132 °C			
Cc1c(OS(N)(=O)=O)ccc2c1S(=O)(=O)C(C1CCCCCC1)=C2 [Ex 65, Sulfamic acid, 2-cycloheptyl-7-methyl-benzothiophene-6-yl-1,1-dioxide ester]	31.7 ± 9.9 nM	90 °C			
CC1CCC(C2=Cc3ccc(OS(N)(=O)=O)cc3S2(=O)=O)CC1 (centres unmarked) [Ex 48, Sulfamic acid, 2-(4-methylcyclohexyl)-benzothiophene-6-yl-1,1-dioxide ester]	7.6 ± 1.3 nM	170 °C	3%	60%	0.09 ± 0.02 nM
NS(=O)(=O)Oc1ccc2cc(C3C4CC5CC(C4)CC3C5)sc2c1 (centres unmarked) [Ex 37, Sulfamic acid, 2-(2-adamantyl)-benzothiophene-6-yl ester]	92.4 ± 15.6 nM	185 °C			
Cc1c(OS(N)(=O)=O)ccc2cc(C3CCCCCC3)sc12 [Ex 62, Sulfamic acid, 2-cycloheptyl-7-methyl-benzothiophene-6-yl ester]		107 °C			
NS(=O)(=O)Oc1ccc2cc(C3CCCCC3)[s+]([O-])c2c1 (centres unmarked) [Ex 42, Sulfamic acid, 2-cyclohexyl-benzothiophene-6-yl-1-oxide ester]	7 ± 1.2 nM		0%	38%	0.16 ± 0.03 nM
